Measurements as given in US9499550B2 (BRISTOL-MYERS SQUIBB COMPANY, priority 2012, dated 2016).

What was measured:
[1] = system: HCV genotype 1a (H77 strain) replicon in HUH-7 cells; experiment: HCV replicon luciferase reporter assay, genotype 1a; format: cell-based; details: Hepatitis C virus, Huh-7, 72 h, HCV genotype 1a replicon luciferase assay, 3 days incubation, range class, read-out: LE_1a (EC50, range)
Summary of the method: (§1)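 Replicon inhibition for both genotypes was measured as Renilla luciferase signal (EnduRen, 7.5 μM final, 2 h) after 3-day, 37° C exposure of replicon-bearing HUH-7 cells in 4% FCS DMEM, 0.5% DMSO. The 1b construct carries S1179I; the 1a H77 construct carries P1496L and S2204I. Twenty-point, 3-fold dilutions were fitted four-parametrically for EC50, and CC50 was taken from multiplexed Cell Titer-Blue.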

[2] = system: HCV genotype 1b (Con1) replicon in HUH-7 cells; experiment: HCV replicon luciferase reporter assay, genotype 1b; format: cell-based; details: Hepatitis C virus, Huh-7, 72 h, HCV genotype 1b replicon luciferase assay, 3 days incubation, range class, read-out: LE_1b (EC50, range)
Summary of the method: as §1

Row | SMILES | EC50 [1] | EC50 [2]
1 | C[C@@H]1CC/C=C\[C@@H]2C[C@@]2(C(=O)NS(=O)(=O)C2CC2)NC(=O)[C@@H]2C[C@@H](Oc3ncc(OCC(F)F)c4ccccc34)CN2C(=O)[C@@H](NC(=O)O[C@H](C)C(F)(F)F)[C@H](C)C1 [Compound 1034, (R)-1,1,1-trifluoropropan-2-yl((2R,6S,7R,9R,13aS,14aR,16aS,Z)-14a-((cyclopropylsulfonyl)carbamoyl)-2-((4-(2,2-difluoroethoxyl)isoquinolin-1-yl)oxy)-7,9-dimethyl-5,16-dioxo-1,2,3,5,6,7,8,9,10,11,13a,14,14a,15,16,16a-hexadecahydrocyclopropa[e]pyrrolo[1,2-a][1,4]diazacyclopentadecin-6-yl)carbamate] | < 5.46 nM | < 5.46 nM
2 | C[C@H]1CC/C=C\[C@@H]2C[C@@]2(C(=O)NS(=O)(=O)C2(C)CC2)NC(=O)[C@@H]2C[C@@H](Oc3ncc(OCC(F)F)c4ccccc34)CN2C(=O)[C@@H](NC(=O)O[C@H](C)C(F)(F)F)[C@H](C)C1 [Compound 1035, (R)-1,1,1-trifluoropropan-2-yl ((2R,6S,7R,9S,13aS,14aR,16aS,Z)-2-((4-(2,2-difluoroethoxyl)isoquinolin-1-yl)oxy)-7,9-dimethyl-14a-(((1-methylcyclopropyl)sulfonyl)carbamoyl)-5,16-dioxo-1,2,3,5,6,7,8,9,10,11,13a,14,14a,15,16,16a-hexadecahydrocyclopropa[e]pyrrolo[1,2-a][1,4]diazacyclopentadecin-6-yl)carbamate] | 4.82 to 103 nM | 4.82 to 103 nM
3 | C[C@@H]1CC/C=C\[C@@H]2C[C@@]2(C(=O)NS(=O)(=O)C2(C)CC2)NC(=O)[C@@H]2C[C@@H](Oc3ncc(OCC(F)F)c4ccccc34)CN2C(=O)[C@@H](NC(=O)O[C@H](C)C(F)(F)F)[C@H](C)C1 [Compound 1036, (R)-1,1,1-trifluoropropan-2-yl ((2R,6S,7R,9R,13aS,14aR,16aS,Z)-2-((4-(2,2-difluoroethoxyl)isoquinolin-1-yl)oxy)-7,9-dimethyl-14a-(((1-methylcyclopropyl)sulfonyl)carbamoyl)-5,16-dioxo-1,2,3,5,6,7,8,9,10,11,13a,14,14a,15,16,16a-hexadecahydrocyclopropa[e]pyrrolo[1,2-a][1,4]diazacyclopentadecin-6-yl)carbamate] | < 5.46 nM | < 5.46 nM
4 | COCCOc1cnc(O[C@@H]2C[C@H]3C(=O)N[C@]4(C(=O)NS(=O)(=O)C5(C)CC5)C[C@H]4/C=C\CC[C@H](C)C[C@@H](C)[C@H](NC(=O)OC(C)(C)C(F)(F)F)C(=O)N3C2)c2ccccc12 [Compound 1037, 1,1,1-trifluoro-2-methylpropan-2-yl((2R,6S,7R,9S,13aS,14aR,16aS,Z)-2-((4-(2-methoxyethoxyl)isoquinolin-1-yl)oxy)-7,9-dimethyl-14a-(((1-methylcyclopropyl)sulfonyl)carbamoyl)-5,16-dioxo-1,2,3,5,6,7,8,9,10,11,13a,14,14a,15,16,16a-hexadecahydrocyclopropa[e]pyrrolo[1,2-a][1,4]diazacyclopentadecin-6-yl)carbamate] | 4.82 to 103 nM | 4.82 to 103 nM
5 | COCCOc1cnc(O[C@@H]2C[C@H]3C(=O)N[C@]4(C(=O)NS(=O)(=O)C5(C)CC5)C[C@H]4/C=C\CC[C@@H](C)C[C@@H](C)[C@H](NC(=O)OC(C)(C)C(F)(F)F)C(=O)N3C2)c2ccccc12 [Compound 1038, 1,1,1-trifluoro-2-methylpropan-2-yl((2R,6S,7R,9R,13aS,14aR,16aS,Z)-2-((4-(2-methoxyethoxyl)isoquinolin-1-yl)oxy)-7,9-dimethyl-14a-(((1-methylcyclopropyl)sulfonyl)carbamoyl)-5,16-dioxo-1,2,3,5,6,7,8,9,10,11,13a,14,14a,15,16,16a-hexadecahydrocyclopropa[e]pyrrolo[1,2-a][1,4]diazacyclopentadecin-6-yl)carbamate] | < 5.46 nM | < 5.46 nM
6 | COCCOc1cnc(O[C@@H]2C[C@H]3C(=O)N[C@]4(C(=O)NS(=O)(=O)C5(C)CC5)C[C@H]4/C=C\CC[C@@H](C)C[C@@H](C)[C@H](NC(=O)OC4C[C@@H]5C[C@H]5C4)C(=O)N3C2)c2ccccc12 [Compound 1039, (1S,5S)-bicyclo[3.1.0]hexan-3-yl((2R,6S,7R,9R,13aS,14aR,16aS,Z)-2-((4-(2-methoxyethoxyl)isoquinolin-1-yl)oxy)-7,9-dimethyl-14a-(((1-methylcyclopropyl)sulfonyl)carbamoyl)-5,16-dioxo-1,2,3,5,6,7,8,9,10,11,13a,14,14a,15,16,16a-hexadecahydrocyclopropa[e]pyrrolo[1,2-a][1,4]diazacyclopentadecin-6-yl)carbamate] | < 5.46 nM | < 5.46 nM
7 | COCCOc1cnc(O[C@@H]2C[C@H]3C(=O)N[C@]4(C(=O)NS(=O)(=O)C5CC5)C[C@H]4/C=C\CC[C@@H](C)C[C@@H](C)[C@H](NC(=O)OC4C[C@@H]5C[C@H]5C4)C(=O)N3C2)c2ccccc12 [Compound 1040, (1S,5S)-bicyclo[3.1.0]hexan-3-yl((2R,6S,7R,9R,13aS,14aR,16aS,Z)-14a-((cyclopropylsulfonyl)carbamoyl)-2-((4-(2-methoxyethoxyl)isoquinolin-1-yl)oxy)-7,9-dimethyl-5,16-dioxo-1,2,3,5,6,7,8,9,10,11,13a,14,14a,15,16,16a-hexadecahydrocyclopropa[e]pyrrolo[1,2-a][1,4]diazacyclopentadecin-6-yl)carbamate] | < 5.46 nM | < 5.46 nM
8 | COc1cnc(O[C@@H]2C[C@H]3C(=O)N[C@]4(C(=O)NS(=O)(=O)C5(CF)CC5)C[C@H]4/C=C\CC[C@@H](C)C[C@@H](C)[C@H](NC(=O)OC4COC4)C(=O)N3C2)c2ccccc12 [Compound 1041, oxetan-3-yl ((2R,6S,7R,9R,13aS,14aR,16aS,Z)-14a-(((1-(fluoromethyl)cyclopropyl)sulfonyl)carbamoyl)-2-((4-methoxyisoquinolin-1-yl)oxy)-7,9-dimethyl-5,16-dioxo-1,2,3,5,6,7,8,9,10,11,13a,14,14a,15,16,16a-hexadecahydrocyclopropa[e]pyrrolo[1,2-a][1,4]diazacyclopentadecin-6-yl)carbamate] | 4.82 to 103 nM | < 5.46 nM
9 | COc1cnc(O[C@@H]2C[C@H]3C(=O)N[C@]4(C(=O)NS(=O)(=O)C5(CF)CC5)C[C@H]4/C=C\CC[C@@H](C)C[C@@H](C)[C@H](NC(=O)OC(C)(C)C(C)(F)F)C(=O)N3C2)c2ccccc12 [Compound 1043, 3,3-difluoro-2-methylbutan-2-yl((2R,6S,7R,9R,13aS,14aR,16aS,Z)-14a-(((1-(fluoromethyl)cyclopropyl)sulfonyl)carbamoyl)-2-((4-methoxyisoquinolin-1-yl)oxy)-7,9-dimethyl-5,16-dioxo-1,2,3,5,6,7,8,9,10,11,13a,14,14a,15,16,16a-hexadecahydrocyclopropa[e]pyrrolo[1,2-a][1,4]diazacyclopentadecin-6-yl)carbamate] | < 5.46 nM | < 5.46 nM
10 | CCC(C)(C)OC(=O)N[C@@H]1C(=O)N2C[C@H](Oc3ncc(OC)c4ccccc34)C[C@H]2C(=O)N[C@]2(C(=O)NS(=O)(=O)C3(CF)CC3)C[C@H]2/C=C\CC[C@@H](C)C[C@H]1C [Compound 1044, tert-pentyl ((2R,6S,7R,9R,13aS,14aR,16aS,Z)-14a-(((1-(fluoromethyl)cyclopropyl)sulfonyl)carbamoyl)-2-((4-methoxyisoquinolin-1-yl)oxy)-7,9-dimethyl-5,16-dioxo-1,2,3,5,6,7,8,9,10,11,13a,14,14a,15,16,16a-hexadecahydrocyclopropa[e]pyrrolo[1,2-a][1,4]diazacyclopentadecin-6-yl)carbamate] | < 5.46 nM | < 5.46 nM
11 | COc1cnc(O[C@@H]2C[C@H]3C(=O)N[C@]4(C(=O)NS(=O)(=O)C5(CF)CC5)C[C@H]4/C=C\CC[C@@H](C)C[C@@H](C)[C@H](NC(=O)OC4(C)COC4)C(=O)N3C2)c2ccccc12 [Compound 1045, 3-methyloxetan-3-yl ((2R,6S,7R,9R,13aS,14aR,16aS,Z)-14a-(((1-(fluoromethyl)cyclopropyl)sulfonyl)carbamoyl)-2-((4-methoxyisoquinolin-1-yl)oxy)-7,9-dimethyl-5,16-dioxo-1,2,3,5,6,7,8,9,10,11,13a,14,14a,15,16,16a-hexadecahydrocyclopropa[e]pyrrolo[1,2-a][1,4]diazacyclopentadecin-6-yl)carbamate] | < 5.46 nM | < 5.46 nM
12 | COc1cnc(O[C@@H]2C[C@H]3C(=O)N[C@]4(C(=O)NS(=O)(=O)C5(CF)CC5)C[C@H]4/C=C\CC[C@@H](C)C[C@@H](C)[C@H](NC(=O)OC4(C(F)(F)F)COC4)C(=O)N3C2)c2ccccc12 [Compound 1046, 3-(trifluoromethyl)oxetan-3-yl ((2R,6S,7R,9R,13aS,14aR,16aS,Z)-14a-(((1-(fluoromethyl)cyclopropyl)sulfonyl)carbamoyl)-2-((4-methoxyisoquinolin-1-yl)oxy)-7,9-dimethyl-5,16-dioxo-1,2,3,5,6,7,8,9,10,11,13a,14,14a,15,16,16a-hexadecahydrocyclopropa[e]pyrrolo[1,2-a][1,4]diazacyclopentadecin-6-yl)carbamate] | < 5.46 nM | < 5.46 nM
13 | COc1cnc(O[C@@H]2C[C@H]3C(=O)N[C@]4(C(=O)NS(=O)(=O)C5(CF)CC5)C[C@H]4/C=C\CC[C@H](C)C[C@@H](C)[C@H](NC(=O)OC4(C(F)(F)F)CCOCC4)C(=O)N3C2)c2ccccc12 [Compound 1047, 4-(trifluoromethyl)tetrahydro-2H-pyran-4-yl((2R,6S,7R,9S,13aS,14aR,16aS,Z)-14a-(((1-(fluoromethyl)cyclopropyl)sulfonyl)carbamoyl)-2-((4-methoxyisoquinolin-1-yl)oxy)-7,9-dimethyl-5,16-dioxo-1,2,3,5,6,7,8,9,10,11,13a,14,14a,15,16,16a-hexadecahydrocyclopropa[e]pyrrolo[1,2-a][1,4]diazacyclopentadecin-6-yl)carbamate] | 4.82 to 103 nM | 4.82 to 103 nM
